The supplement of paper PMC5908809

How the values were obtained:
KAI3 (IL-2 2.5 ng/mL) [1] = test: percent inhibition of viability; higher = more inhibition; settings: 72 h
NK-YS (IL-2 2.5 ng/mL) [2] = test: as above; settings: 72 h
[3] = test system: normal primary NK cells, pool 3 (3 donors) (IL-2 2.5 ng/mL); test: as above; settings: 72 h
[4] = test system: normal primary NK cells, pool 1 (3 donors), resting (IL-2 0 ng/mL); test: as above; settings: 72 h
IMC-1 (IL-2 20 ng/mL) [5] = test: as above; settings: 72 h
SNK-6 (IL-2 2.5 ng/mL) [6] = test: as above; settings: 72 h
[7] = test system: normal primary NK cells, pool 2 (3 donors) (IL-2 2.5 ng/mL); test: as above; settings: 72 h
DERL-7 (IL-2 2.5 ng/mL) [8] = test: as above; settings: 72 h
KHYG-1 (IL-2 2.5 ng/mL) [9] = test: as above; settings: 72 h
[10] = test system: normal primary NK cells, pool 1 (3 donors) (IL-2 2.5 ng/mL); test: as above; settings: 72 h
NKL (IL-2 2.5 ng/mL) [11] = test: as above; settings: 72 h
NK-92 (IL-2 2.5 ng/mL) [12] = test: as above; settings: 72 h
YT (IL-2 2.5 ng/mL) [13] = test: as above; settings: 72 h
[14] = test system: normal NK cells expanded with K562-aAPC; test: drug sensitivity score (DSS) (DSS units); higher = more sensitive; extreme values may be limits of the assay; settings: 72 h; IL-2 2.5 ng/mL
Protocol: (§1)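 Drug sensitivity and resistance testing on K562-aAPC-expanded normal NK cells: 5 concentrations (10-fold steps over a 10,000-fold range), 72 h at 37 °C, viability by CellTiter-Glo normalised to DMSO and benzethonium chloride controls; DSS from the fitted curve.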

KAI3 (IL-2 2.5 ng/mL) [15] = test: as above; settings: 72 h
NK-YS (IL-2 2.5 ng/mL) [16] = test: as above; settings: 72 h
[17] = test system: normal primary NK cells, pool 3 (3 donors) (IL-2 2.5 ng/mL); test: as above; settings: 72 h
[18] = test system: normal primary NK cells, pool 1 (3 donors), resting (IL-2 0 ng/mL); test: as above; settings: 72 h
IMC-1 (IL-2 20 ng/mL) [19] = test: as above; settings: 72 h
SNK-6 (IL-2 2.5 ng/mL) [20] = test: as above; settings: 72 h
[21] = test system: normal primary NK cells, pool 2 (3 donors) (IL-2 2.5 ng/mL); test: as above; settings: 72 h
DERL-7 (IL-2 2.5 ng/mL) [22] = test: as above; settings: 72 h
KHYG-1 (IL-2 2.5 ng/mL) [23] = test: as above; settings: 72 h
[24] = test system: normal primary NK cells, pool 1 (3 donors) (IL-2 2.5 ng/mL); test: as above; settings: 72 h
NKL (IL-2 2.5 ng/mL) [25] = test: as above; settings: 72 h
NK-92 (IL-2 2.5 ng/mL) [26] = test: as above; settings: 72 h
YT (IL-2 2.5 ng/mL) [27] = test: as above; settings: 72 h
[28] = test system: normal NK cells expanded with K562-aAPC; test: percent inhibition of viability; higher = more inhibition; settings: 72 h, IL-2 2.5 ng/mL
Protocol: as §1

Cn1cncc1[C@@](N)(c1ccc(Cl)cc1)c1ccc2c(c1)c(-c1cccc(Cl)c1)cc(=O)n2C [Tipifarnib] (max concentration tested 10000 nM)
percent inhibition of viability [%]
Settings	1 nM	10 nM	100 nM	1000 nM	10000 nM
DERL-7 (IL-2 2.5 ng/mL) [8]	1.19	15	50.5	55.8	82.4
IMC-1 (IL-2 20 ng/mL) [5]	-0.42	7.67	12.7	14.3	84.9
KAI3 (IL-2 2.5 ng/mL) [1]	6.75	19.1	47.3	58.3	85.1
KHYG-1 (IL-2 2.5 ng/mL) [9]	-2.81	24	75.8	83	107
NK-92 (IL-2 2.5 ng/mL) [12]	-0.73	9.6	37.6	61.4	109
NK-YS (IL-2 2.5 ng/mL) [2]	-3.65	20.6	59.3	66.9	90
NKL (IL-2 2.5 ng/mL) [11]	-4.94	-3.92	26.4	59.5	92.4
SNK-6 (IL-2 2.5 ng/mL) [6]	-6.05	-1.97	53.1	67.8	79
YT (IL-2 2.5 ng/mL) [13]	3.74	11.7	34.3	55.4	106
[3]	-5.22	13.6	17.7	17.1	53.4
[4]	-0.67	17.8	34.2	56.4	93
[7]	-6.39	6.93	13.5	23.8	83.5
[10]	5.62	11.4	32.4	24	96.1
[28]	-0.6	11.6	28.5	39.2	75.8

Settings	drug sensitivity score
DERL-7 (IL-2 2.5 ng/mL) [22]	18.6
IMC-1 (IL-2 20 ng/mL) [19]	7.09
KAI3 (IL-2 2.5 ng/mL) [15]	19.1
KHYG-1 (IL-2 2.5 ng/mL) [23]	28.6
NK-92 (IL-2 2.5 ng/mL) [26]	17.5
NK-YS (IL-2 2.5 ng/mL) [16]	22.5
NKL (IL-2 2.5 ng/mL) [25]	14.4
SNK-6 (IL-2 2.5 ng/mL) [20]	20.7
YT (IL-2 2.5 ng/mL) [27]	16.2
[14]	11.9
[17]	6.12
[18]	16.3
[21]	7.58
[24]	10.5

CC[C@@]1(O)C(=O)OCc2c1cc1n(c2=O)Cc2cc3c(CN(C)C)c(O)ccc3nc2-1 [Topotecan] (max concentration tested 10000 nM)
percent inhibition of viability [%]
Settings	1 nM	10 nM	100 nM	1000 nM	10000 nM
DERL-7 (IL-2 2.5 ng/mL) [8]	-5.89	8.74	69.9	96.4	100
IMC-1 (IL-2 20 ng/mL) [5]	-3.93	2.9	98.1	99.6	100
KAI3 (IL-2 2.5 ng/mL) [1]	-7.96	6.65	82.9	69.8	100
KHYG-1 (IL-2 2.5 ng/mL) [9]	-8.76	-0.99	98	104	104
NK-92 (IL-2 2.5 ng/mL) [12]	-7.93	14.4	98	102	105
NK-YS (IL-2 2.5 ng/mL) [2]	-4.31	2.83	91.2	94.4	104
NKL (IL-2 2.5 ng/mL) [11]	-16.1	0.22	95.8	101	97.5
SNK-6 (IL-2 2.5 ng/mL) [6]	-7.26	-5.12	93	96.6	99.4
YT (IL-2 2.5 ng/mL) [13]	-6.41	1.19	83.4	102	105
[3]	-3.05	6.63	20.6	31.7	84.1
[4]	-1.44	14.8	4.57	2.84	73.8
[7]	-7.25	5.21	15.2	31.4	85.2
[10]	-0.98	18.9	12.2	42.5	84.4
[28]	-4.37	0.95	51.7	58.8	99.9

Settings	drug sensitivity score
DERL-7 (IL-2 2.5 ng/mL) [22]	26.9
IMC-1 (IL-2 20 ng/mL) [19]	30.6
KAI3 (IL-2 2.5 ng/mL) [15]	28.5
KHYG-1 (IL-2 2.5 ng/mL) [23]	30.1
NK-92 (IL-2 2.5 ng/mL) [26]	32.8
NK-YS (IL-2 2.5 ng/mL) [16]	29.2
NKL (IL-2 2.5 ng/mL) [25]	29.9
SNK-6 (IL-2 2.5 ng/mL) [20]	29
YT (IL-2 2.5 ng/mL) [27]	27.7
[14]	18.3
[17]	9.14
[18]	4.46
[21]	8.28
[24]	10.3
